Results taken from patent US20240270800A1, “ANTIMICROBIAL CaNCR PEPTIDE VARIANTS” (Donald Danforth Plant Science Center, priority 2021, published 2024).
Where a SMILES comes first, the peptide text is derived from it. Bridges are numbered along the chain shown (N, C = ends).

Test system: Botrytis cinerea T-4
Test: Determination of minimum inhibitory concentration, 96-well plate spore assay with resazurin viability
Type: cell-based
Conditions: SFM supplemented with 100 mM NaCl
Procedure: The fungal strains of Botrytis cinerea T-4 were cultured on V8 growth medium. Fungal spores were harvested by flooding the fungal growth plates with sterile water. The spore suspension was filtered through two layers of Miracloth, centrifuged at 13,600 rpm for 1 min, washed, and re-suspended in low-salt Synthetic Fungal Medium (SFM) (U.S. Pat. No. 6,316,407). The spore suspension of each fungal pathogen was adjusted to equivalent spore density using a hemocytometer ([…]).
Anti-fungal activity of NCR13_WT and NCR13_V2 against B. cinerea was assessed using the 2-fold dilution series of each peptide. The antifungal activity was determined spectrophotometrically using the 96-well plate assay (Sagaram et al., 2011). The 45 μL of the peptide dilution ([…]) was added to each well of the microtiter plate containing 45 μL of (˜10^5 spores/ml) the spore suspension. The quantitative fungal growth inhibition was determined by measuring the absorbance at 595 nm using a (Tecan Infinite M200 ProTecan Systems Inc., San Jose, CA) microplate reader after 48 h. The fungal cell viability was determined using the resazurin cell viability assay (Chadha S & Kale SP, 2015; Li et al.; 2019). After incubation of the pathogen/peptide mixture for 48 h, 10 μl of 0.1% resazurin solution was added to each well and re-incubated overnight. […]

CC[C@H](C)[C@@H]1NC(=O)[C@@H]2CSSC[C@H](NC(=O)[C@@H]3CCCN3C(=O)[C@H](CCCCN)NC(=O)[C@@H](N)[C@@H](C)O)C(=O)N[C@@H](CCC(N)=O)C(=O)N[C@@H](CO)C(=O)N[C@@H](CC(=O)O)C(=O)N[C@@H](CCCCN)C(=O)N[C@@H](CC(=O)O)C(=O)N[C@H]3CSSC[C@H](NC(=O)[C@H](Cc4ccccc4)NC(=O)CNC(=O)[C@H](CC(N)=O)NC1=O)C(=O)N[C@@H](CCCCN)C(=O)N[C@H](C(=O)N[C@H](C(=O)N[C@@H](CCCNC(=N)N)C(=O)O)C(C)C)CSSC[C@H](NC(=O)[C@H](C)NC(=O)[C@H](Cc1ccccc1)NC(=O)[C@H](CCCCN)NC(=O)[C@H](CCCCN)NC3=O)C(=O)N[C@@H](CCCNC(=N)N)C(=O)N[C@@H](CCCCN)C(=O)N1CCC[C@H]1C(=O)N[C@@H](CCCCN)C(=O)N[C@@H](C(C)C)C(=O)N1CCC[C@H]1C(=O)N[C@@H](CCCCN)C(=O)N2 [CaNCR13] (H-TKPCQSDKDCKKFACRKPKVPKCINGFCKCVR-OH; disulfide 4-23, 10-28, 15-30)
MIC (SFM + 100 mM NaCl): No Activity
